The source of these data is patent US9586957B2, “2-keto amide derivatives as HIV attachment inhibitors” (priority 2013, dated 2017).

Read-outs that look alike come from different tables or passages of the source.

This test deals with HIV-1 LAI. In words: Single-round infectious HIV-1 LAI envelope luciferase reporter virus infection of MT2 cells. In kind it is cell-based. Particulars: Human immunodeficiency virus 1, MT2, 72 h. The source says:
• Virus production—Human embryonic Kidney cell line, 293T (HEK 293T), was propagated in Dulbecco's Modified Eagle Medium (Invitrogen, Carlsbad, Calif.) containing 10% fetal bovine serum (FBS, Sigma, St. Louis, Mo.). The human T-cell leukemia cell MT2 (AIDS Research and Reference Reagent Program, Cat. 237) was propagated in RPMI 1640 (Invitrogen, Carlsbad, Calif.) containing 10% fetal bovine serum (FBS, Hyclone, Logan, Utah) • Virus infection—Single-round infectious reporter virus was produced by co-transfecting HEK 293T cells with plasmide expressing the HIV-1 LAI envelope along with a plasmid containing an HIV-1 LAI proviral cDNA with the envelope gene replaced by a firefly luciferase reporter gene (Chen et al., Ref 41). Transfections were performed using lipofectAMINE PLUS reagent as described by the manufacturer (Invitrogen, Carlsbad, Calif.). Experimental Procedure • 1. MT2 cells were plated in black, 384 well plates at a cell density of 5×10^3 cells per well in 25 μl RPMI 1640 containing 10% FBS. • 2. Compound (diluted in dimethylsulfoxide and growth medium) was added to cells at 12.5 μl/well, so that the final assay concentration would be ≦50 nM. • 3. 12.5 μl of single-round infectious reporter virus in Dulbecco's Modified Eagle
Medium was added to the plated cells and compound at an approximate multiplicity of infection (MOI) of 0.01, resulting in a final volume of 50 μl per well. • 4. Virus-infected cells were incubated at 37 degrees Celsius in a CO2 incubator and harvested 72 h after infection. • 5. Viral infection was monitored by measuring luciferase expression in the infected cells using a luciferase reporter gene assay kit (Steady-Glo, Promega, Madison, Wis.) as described by the manufacturer. Luciferase activity was then quantified by measuring luminescence using an EnVision Multilabel Plate Readers (PerkinElmer, Waltham, Mass.). • 6. The percent inhibition for each compound was calculated by quantifying the level of luciferase expression in cells infected in the presence of each compound as a percentage of that observed for cells infected in the absence of compound and subtracting such a determined value from 100. • 7. An EC50 provides a method for comparing the antiviral potency of the compounds of the invention. The effective concentration for fifty percent inhibition (EC50) was calculated with the Microsoft Excel Xlfit curve fitting software. For each compound, curves were generated from percent inhibition calculated at 10 different concentrations by using a four parameter logistic model (model 205). Table 1 is the key for the data in Table 2.
(A reporter such as luciferase makes a cellular process visible.)

The mark [1] stands for this setting: read-out: EC50 Group from Table 1.

A word on the EC50: it is the concentration needed to bring the measured effect to its halfway point. `O=C(C(=O)N1CCCC(c2ccc(Cl)cc2)C1)c1c[nH]c2c(-n3ccnn3)ncc(F)c12` (centres unmarked) [Compound 1003]: the EC50 under setting [1] is over 500 nM. In turn, `COc1cnc(-n2cnc(C)n2)c2[nH]cc(C(=O)C(=O)N3CCc4ncn(-c5ccccc5)c4CC3)c12` [Compound 2001] showed an EC50 of 0.09 nM. The EC50 under setting [1] was under 500 nM. As to `O=C(C(=O)N1CCCC(c2ccccc2)CC1)c1c[nH]c2c(-n3ccnn3)ncc(F)c12` (centres unmarked) [Compound 1006], the EC50 under setting [1] was under 500 nM.

Regarding `O=C(C(=O)N1CCC(c2ccccc2)C1)c1c[nH]c2c(-n3ccnn3)ncc(F)c12` (centres unmarked) [Compound 1001], the EC50 stood at 38.1 nM. Also, the EC50 under setting [1] is under 500 nM.

In the case of `O=C(C(=O)N1CCC(Nc2cccc(S(=O)(=O)C(F)(F)F)c2)CC1)c1c[nH]c2ccccc12` [Compound 1018], the EC50 under setting [1] is over 500 nM. On the same count and under the same terms, for `COc1cnc(-n2cnc(C)n2)c2[nH]cc(C(=O)C(=O)N3Cc4nn(-c5ccccc5)c(N)c4C3)c12` [Compound 2003] the value was under 500 nM; for `O=C(C(=O)N1CCC[C@H](c2ccccc2)C1)c1c[nH]c2c(-n3ccnn3)ncc(F)c12` [Compound 1002], under 500 nM. Still for that read-out and setting: the value for `NC(=O)C1(Nc2ccccc2)CCN(C(=O)C(=O)c2c[nH]c3ccccc23)CC1` [Compound 1017] was over 500 nM. Same read-out and setting: for `O=C(C(=O)N1CCCC(c2cccc(F)c2)C1)c1c[nH]c2c(-n3ccnn3)ncc(F)c12` (centres unmarked) [Compound 1004] the value was over 500 nM; for `O=C(C(=O)N1CCC(Oc2ccccc2)CC1)c1c[nH]c2c(-n3ccnn3)ncc(F)c12` [Compound 1009], under 500 nM. Consider `COc1ccc(OC2CN(C(=O)C(=O)c3c[nH]c4c(-n5ccnn5)ncc(F)c34)C2)cc1` [Compound 1020], for which the EC50 under setting [1] was under 500 nM. Same read-out and setting: the value for `COc1ncc(OC)c2c(C(=O)C(=O)N3CCC(Oc4ccccc4)CC3)c[nH]c12` [Compound 1013] was over 500 nM; that for `COc1ccnc2[nH]cc(C(=O)C(=O)N3CCC(Oc4ccccc4)CC3)c12` [Compound 1012] was under 500 nM.

For `COc1cnc(-n2cnc(C)n2)c2[nH]cc(C(=O)C(=O)N3CCc4nn(-c5ccccc5)cc4C3)c12` [Compound 2002], the EC50 stood at 0.92 nM. Besides, under setting [1], the EC50 is under 500 nM. Turning to `CCC(=O)N(c1ccccc1)C1CCN(C(=O)C(=O)c2c[nH]c3c(-n4ccnn4)ncc(F)c23)CC1` [Compound 1011], the EC50 under setting [1] is under 500 nM. On the same count and under the same terms, for `O=C(C(=O)N1CCCC(Cc2ccccc2)C1)c1c[nH]c2c(-n3ccnn3)ncc(F)c12` (centres unmarked) [Compound 1005] the value was over 500 nM; for `COc1ncc(OC)c2c(C(=O)C(=O)N3CCC(Oc4ccc(Cl)cc4)CC3)c[nH]c12` [Compound 1015], over 500 nM. The same measure, in the same setting: the value for `O=C(C(=O)N1CCC(Nc2ccccc2)C1)c1c[nH]c2c(-n3ccnn3)ncc(F)c12` (centres unmarked) [Compound 1007] was under 500 nM; that for `O=C(C(=O)N1CCCC(Oc2ccccc2)C1)c1c[nH]c2cccc(F)c12` (centres unmarked) [Compound 1016] was over 500 nM. Still for that read-out and setting: for `O=C(C(=O)N1CCC(c2cccc(C(F)(F)F)c2)C(O)C1)c1c[nH]c2ccccc12` (centres unmarked) [Compound 1019] the value was over 500 nM. `O=C(C(=O)N1CCC(Nc2ccccc2)CC1)c1c[nH]c2c(-n3ccnn3)ncc(F)c12` [Compound 1010] registered an EC50 of 41.8 nM. Moreover, the concentration for a half-maximal effect (EC50) under setting [1] is under 500 nM.

In the case of `COc1ccnc2[nH]cc(C(=O)C(=O)N3CCC(Oc4ccc(Cl)cc4)CC3)c12` [Compound 1014], a half-maximal effect (EC50) was put at 757 nM. Moreover, the EC50 under setting [1] was over 500 nM. `COc1cnc(-n2cnc(C)n2)c2[nH]cc(C(=O)C(=O)N3CCC(=C(C#N)c4ccccc4)C3)c12` [Compound 1008] came in with an EC50 of 18.9 nM. Besides, under setting [1], the EC50 was under 500 nM.
